These molecules were tested against Glutamate NMDA receptor (assay: Displacement of [3H]CPP from N-methyl-D-aspartate glutamate receptor in rat brain membrane).
Format: cell membranes

Row | IC50 [µM] | Compound
1 | 32 | O=C(O)C1CN(CCCP(=O)(O)O)C(=O)CN1 (configuration not stated)
2 | > 100 | NC(CCCCC(N)C(=O)O)C(=O)O (configuration not stated)
3 | > 100 | O=C(O)C1CN(Cc2ccccc2CP(=O)(O)O)CCN1 (configuration not stated)
4 | < 0.1 | N[C@H](C(=O)O)[C@@H]1C[C@@H]1C(=O)O
5 | > 100 | NC(C(=O)O)c1ccc(P(=O)(O)O)cc1 (configuration not stated)
6 | 30 | O=C1CN(CCCP(=O)(O)O)CC(C(=O)O)N1 (configuration not stated)
7 | > 100 | Cc1c(CP(=O)(O)O)ccnc1C(=O)O
8 | > 13.3 | O=C(O)[C@H]1CN(C(c2ccccc2)P(=O)(O)O)CCN1 (some centres not stated)
9 | 14.5 | O=C(O)CCc1cccc2c1CCNC2C(=O)O (configuration not stated)
10 | 10 | N[C@@H](CC(=O)O)C(=O)O [ASPARTIC ACID]
11 | 10 | N[C@H](C(=O)O)[C@H]1C[C@H]1C(=O)O
12 | 25 | NC(C(=O)O)c1cccc(C(=O)O)c1 (configuration not stated)
13 | 10 | N[C@H](CC(=O)O)C(=O)O [D-ASPARTATE]
14 | 61 | O=C(O)C1NCCc2cc(CP(=O)(O)O)ccc21 (configuration not stated)
15 | 3.3 | NC(Cc1cccc(CP(=O)(O)O)c1)C(=O)O (configuration not stated)
16 | 5.2 | O=C(O)CNCc1ccc(CP(=O)(O)O)cc1
17 | 37.2 | O=C(O)C1NCCc2ccc(CP(=O)(O)O)cc21 (configuration not stated)
18 | > 100 | O=C(O)C1CN(Cc2ccccc2P(=O)(O)O)CCN1 (configuration not stated)
19 | 0.8 | CC([C@H]1CCN[C@H](C(=O)O)C1)P(=O)(O)O (some centres not stated)
20 | 50 | NC(C(=O)O)c1cc(CP(=O)(O)O)cc(-c2ccccc2)c1 (configuration not stated)

Row | Compound | IC50 [µM]
21 | NC(CCCCP(=O)(O)O)C(=O)O (configuration not stated) | 42
22 | N[C@@H](CNCP(=O)(O)O)C(=O)O | 4.3
23 | O=C(O)C1NCCC2CCC(P(=O)(O)O)CC21 (configuration not stated) | 5.6
24 | NC(CCP(=O)(O)O)C(=O)O (configuration not stated) | > 100
25 | N[C@@]1(C(=O)O)CC[C@H](C(=O)O)C1 | 10
26 | O=C(O)CNC/C=C/CP(=O)(O)O | 1.2
27 | NC(CCCP(=O)(O)O)C(=O)O (configuration not stated) | 0.28
28 | NC(CC(=O)NCP(=O)(O)O)C(=O)O (configuration not stated) | 2.8
29 | NC(CCCCCP(=O)(O)O)C(=O)O (configuration not stated) [AP-7] | 0.77

These molecules were tested against Glutamate NMDA receptor (assay: Compound was evaluated for its ability to displace [3H]Glu/[3H]-AP5 from rat brain membrane).
Format: tissue-based

Row | IC50 [µM] | Compound
30 | 100 | O=C(O)c1cccnc1C(=O)O [QUINOLINIC ACID]
31 | 100 | O=C(O)[C@H]1CCN[C@H](C(=O)O)C1
32 | 110 | Cc1o[nH]c(=O)c1C(N)C(=O)O (configuration not stated)
33 | 10 | O=C(O)[C@H]1CCCN[C@@H]1C(=O)O
34 | 100 | O=C(O)[C@H]1NCCC[C@H]1C(=O)O

Row | Compound | IC50 [µM]
35 | C=C(C)[C@@H]1CN[C@@H](C(=O)O)[C@@H]1CC(=O)O | 100

What follows are molecules tested against T1, Glutamate NMDA receptor (Rattus norvegicus) (UniProt P35439+Q00959+Q00960+Q00961+Q62645+Q8VHN2+Q9R1M7) (assay: Ability to displace [3H]CPP from N-methyl-D-aspartate glutamate receptor in rat brain membrane was evaluated at 10e-4 M).
Format: cell membranes

Row | inhibition [%] | Compound
36 | 22 | O=C(O)C1NCCc2ccc(CCP(=O)(O)O)cc21 (configuration not stated)
37 | 1 | NC(Cc1ccc(CP(=O)(O)O)cc1)C(=O)O (configuration not stated)
38 | 10 | NC(Cc1ccc(P(=O)(O)O)cc1)C(=O)O (configuration not stated)
39 | 0 | O=C(O)C1NCCc2c1cccc2P(=O)(O)O (configuration not stated)

What follows are molecules tested against Glutamate NMDA receptor (assay: Ability to displace [3H]CPP from NMDA receptor in rat brain membrane).
Format: cell membranes

Row | IC50 [µM] | Compound
40 | 100 | O=C(O)C1CC(CCP(=O)(O)O)C2CCCCC2N1 (configuration not stated)
41 | 10 | Cc1cc(CP(=O)(O)O)cc(C(=O)O)n1
42 | 21 | Cc1cc(C(N)C(=O)O)c(C)cc1CP(=O)(O)O (configuration not stated)
43 | > 100 | NC(Cc1cccc(CCP(=O)(O)O)c1)C(=O)O (configuration not stated)
44 | 0.79 | O=C(O)CCCN1CCN[C@@H](C(=O)O)C1
45 | 13 | NC(C(=O)O)C1CCC(CP(=O)(O)O)CC1 (configuration not stated)
46 | > 100 | O=C(O)CNCc1ccccc1CP(=O)(O)O
47 | 8.4 | NC(Cc1ccccc1CP(=O)(O)O)C(=O)O (configuration not stated)
48 | 0.82 | O=C(O)C1Cc2c(cccc2P(=O)(O)O)CN1 (configuration not stated)
49 | 0.082 | O=C(O)C1CN(CCCP(=O)(O)O)CCN1 (configuration not stated)
50 | 13 | NC(CCCC(=O)O)C(=O)O (configuration not stated)
51 | > 100 | NC(C(=O)O)c1ccc(CCP(=O)(O)O)cc1 (configuration not stated)
52 | 5.8 | O=C(O)[C@H]1CN(C(c2ccccc2)P(=O)(O)O)CCN1 (some centres not stated)
53 | 24 | NC(C(=O)O)c1ccc(CP(=O)(O)O)cc1Br (configuration not stated)
54 | 2.7 | O=C(O)C1NCCc2ccc(P(=O)(O)O)cc21 (configuration not stated)
55 | > 100 | NC(Cc1ccc(CP(=O)(O)O)cc1)C(=O)O (configuration not stated)
56 | 2.8 | NC(Cc1cccc(CP(=O)(O)O)c1)C(=O)O (configuration not stated)
57 | > 100 | O=C(O)CNCc1cccc(P(=O)(O)O)c1

Row | IC50 [µM] | Compound
58 | 0.27 | O=C(O)C1Cc2c(CCP(=O)(O)O)cccc2CN1 (configuration not stated)
59 | 50 | NC(Cc1cccc(C(Br)P(=O)(O)O)c1)C(=O)O (configuration not stated)
60 | > 100 | NC(C(=O)O)c1ccc(CCCP(=O)(O)O)cc1 (configuration not stated)
61 | 5.9 | NC(C(=O)O)c1ccc(CP(=O)(O)O)o1 (configuration not stated)
62 | > 100 | NC(Cc1ccc(P(=O)(O)O)cc1)C(=O)O (configuration not stated)
63 | 74 | NC(C(=O)O)c1ccc(CP(=O)(O)O)c2ccccc12 (configuration not stated)
64 | 0.99 | NC(C(=O)O)c1ccc(CP(=O)(O)O)cc1 (configuration not stated)
65 | 4.08 | O=C(O)C1Cc2cc(CP(=O)(O)O)ccc2CN1 (configuration not stated)
66 | 2.2 | O=C(O)CNCc1cccc(CP(=O)(O)O)c1
67 | 1.6 | O=C(O)C1CN(C2CCC(P(=O)(O)O)C2)CCN1 (configuration not stated)
68 | 83 | O=C(O)C1CN(Cc2cccc(P(=O)(O)O)c2)CCN1 (configuration not stated)
69 | 0.66 | NC(C(=O)O)c1ccc(CP(=O)(O)O)s1 (configuration not stated)
70 | > 100 | NC(Cc1ccccc1P(=O)(O)O)C(=O)O (configuration not stated)
71 | 0.85 | O=C(O)C1CC(CP(=O)(O)O)c2ccccc2N1 (configuration not stated)
72 | > 100 | NC(C(=O)O)c1cccc(CCP(=O)(O)O)c1 (configuration not stated)
73 | 0.054 | O=C(O)[C@@H]1C[C@H](CP(=O)(O)O)CCN1 [SELFOTEL]
74 | 1.95 | O=C(O)C1Cc2c(cccc2CP(=O)(O)O)CN1 (configuration not stated)

Row | Compound | IC50 [µM]
75 | NC(C/C=C/P(=O)(O)O)C(=O)O (configuration not stated) | > 10
76 | C/C(=C\C(N)C(=O)O)CP(=O)(O)O (configuration not stated) [CGP-37849] | 0.035
77 | NC(C#CP(=O)(O)O)C(=O)O (configuration not stated) | 0.45
78 | O=C(O)Cc1cccnc1C(=O)O | 10
79 | O=P(O)(O)CCCN1CCNCC1 | > 100
80 | NC(C[S+]([O-])CP(=O)(O)O)C(=O)O (configuration not stated) | 0.14
81 | NC(C(=O)O)c1cc(=O)[nH]o1 (configuration not stated) | 10
82 | O=C(O)C1CC(CP(=O)(O)O)C2CCCCC2N1 (configuration not stated) | 9.2

The molecules below were run against T1, Glutamate NMDA receptor (Rattus norvegicus) (assay: Ability to displace [3H]CPP from NMDA receptor in rat brain membrane was evaluated at 10e-4 M).
Format: cell membranes

Row | inhibition [%] | Compound
83 | 0 | O=C(O)C1Cc2ccc(CCP(=O)(O)O)cc2CN1 (configuration not stated)
84 | 0 | O=C(O)C1Cc2ccc(P(=O)(O)O)cc2CN1 (configuration not stated)
85 | 0 | O=C(O)C1Cc2ccc(CP(=O)(O)O)cc2CN1 (configuration not stated)
86 | 3 | NC(Cc1ccccc1P(=O)(O)O)C(=O)O (configuration not stated)
87 | 35 | NC(C(=O)O)c1cccc(CCP(=O)(O)O)c1 (configuration not stated)

Reference: ChEMBL document CHEMBL1125432, “Generation of N-methyl-D-aspartate agonist and competitive antagonist pharmacophore models. Design and synthesis of phosphonoalkyl-substituted tetrahydroisoquinolines as novel antagonists” (J Med Chem, 1992)
